These results are taken from US8753841B2, “Enzyme that catalyzes a peptide-forming reaction from a carboxy component and an amine component, microbe producing the same, and a method of producing a dipeptide using the enzyme or microbe” (Ajinomoto Co., Inc., priority 2002, dated 2014).

*: point of attachment. Boc = CC(C)(C)OC(=O)*

Test [1] deals with peptide-forming enzyme from Empedobacter brevis strain FERM BP-8113. Briefly: Substrate specificity of enzyme (peptide production from carboxy and amine components). Further details: key: +: those for which production was confirmed but which were unable to be quantified due to the absence of a standard; a trace amount. Format: biochemical.
The nature of test [2]: Comparison of ability to catalyze peptide formation with known enzymes. Format: biochemical. The conditions noted are these: enzyme of present invention = 100.0. An excerpt: The peptide-forming ability of the present enzyme was compared with that of known enzymes. Carboxypeptidase Y described in EP 278787A1 and the thiol endopeptidases (ficin, papain, bromelain, and chymopapain) described in EP 359399B1 were used as the known enzymes, and they were used in the form of purified enzymes (manufactured by Sigma). The enzyme uniformly purified in Example 3 was used as a source of the present enzyme of the present invention. […] As has been described above, the present enzyme was verified to have an extremely high peptide production rate unlike any known enzyme in the prior art. Furthermore, the enzyme of the present invention is a dimer having a molecular weight of about 75,000. In contrast, the molecular weight of the carboxypeptidase Y has been reported to be about 61,000, while the molecular weight of thiol endopeptidase has been reported to be about 23,000 to 36,000. Thus, the L-alanyl-L-glutamine production rate of the enzyme of the present invention as compared to those of the carboxypeptidase Y and the thiol endopeptidase is even greater when the rate is expressed per molecular weight than when it is expressed per unit weight as indicated in the examples.

The mark [3] stands for this setting: oligopeptide production, amount of enzyme 0.2 unit, pH 9.0, 25° C., 3 hours.

As to H-Lys(Boc)-Gln-OH, in test [1] (carboxy component 100 mM, amine component 150 mM, 0.1 unit enzyme, 25° C., reaction time 2 hr), the “Produced peptide (mM)” value is on record as “+”.
As for H-CHA-Phe-OH, the “Produced peptide (mM)” value in test [1] (carboxy component 40 mM, amine component 40 mM, 0.1 unit enzyme, 25° C., reaction time 3 hr) is given as “+”.
For the molecule Bromelain, the “Ratio of L-Ala-L-Gln production rate per enzyme unit weight” value (shortened to “Ratio … per enzyme unit weight”) in test [2] turned out to be 0.0010.
Turning to H-Ala-2-Nal-OH, the “Produced peptide (mM)” value in test [1] (carboxy component 20 mM, amine component 20 mM, 0.1 unit enzyme, 25° C., reaction time 3 hr) is reported as “+”.
As for Ficin, in test [2], the “Ratio … per enzyme unit weight” value was found to be 0.0017.
L-Ala-Gly-Gly-L-Phe-L-Met: in test [1] (setting [3]), the “Produced peptide (mM)” value is “+”.
Still for that read-out and setting: the entry for L-Ala-L-Phe-L-Met is “+”.
Take L-Ala-Gly-L-Phe: in test [1] (oligopeptide production, amount of enzyme 0.1 unit, pH 9.0, 25° C., 3 hours), the “Produced peptide (mM)” value is given as “+”.
On to “Chymopapain: thiol endopeptidase described in EP 359399B1, purified enzyme manufactured by Sigma”, for which, in test [2], the “Ratio … per enzyme unit weight” value is listed as 0.0013.

B1: Carboxypeptidase Y: known enzyme described in EP 278787A1, purified enzyme manufactured by Sigma (protein, UniProt P00729 112-532, looked up)
Carboxypeptidase Y: KIKDPKILGIDPNVTQYTGYLDVEDEDKHFFFWTFESRNDPAKDPVILWLNGGPGCSSLTGLFFELGPSSIGPDLKPIGNPYSWNSNATVIFLDQPVNVGFSYSGSSGVSNTVAAGKDVYNFLELFFDQFPEYVNKGQDFHIAGESYAGHYIPVFASEILSHKDRNFNLTSVLIGNGLTDPLTQYNYYEPMACGEGGEPSVLPSEECSAMEDSLERCLGLIESCYDSQSVWSCVPATIYCNNAQLAPYQRTGRNVYDIRKDCEGGNLCYPTLQDIDDYLNQDYVKEAVGAEVDHYESCNFDINRNFLFAGDWMKPYHTAVTDLLNQDLPILVYAGDKDFICNWLGNKAWTDVLPWKYDEEFASQKVRNWTASITDEVAGEVKSYKHFTYLRVFNGGHMVPFDVPENALSMVNEWIHGGFSL
Take B1: the “Ratio … per enzyme unit weight” value in test [2] is listed as 0.0191.

B2: Papain: thiol endopeptidase described in EP 359399B1, purified enzyme manufactured by Sigma (protein, UniProt P00784 134-345, looked up)
Papain: IPEYVDWRQKGAVTPVKNQGSCGSCWAFSAVVTIEGIIKIRTGNLNEYSEQELLDCDRRSYGCNGGYPWSALQLVAQYGIHYRNTYPYEGVQRYCRSREKGPYAAKTDGVRQVQPYNEGALLYSIANQPVSVVLEAAGKDFQLYRGGIFVGPCGNKVDHAVAAVGYGPNYILIKNSWGTGWGENGYIRIKRGTGNSYGVCGLYTSSFYPVKN
As to B2, the “Ratio … per enzyme unit weight” value in test [2] is on record as 0.0021.
